Patent publication US8808702B2, “Sulfide, sulfoxide and sulfone chalcone analogues, derivatives thereof and therapeutic uses thereof” (Temple University-of the Commonwealth System of Higher …, priority 2006, dated 2014)

Columns and labels:
[1] = system: DU145 (prostate cancer); assay: Effect of compounds on tumor cell lines (assay of Latham et al.), DU145; type: cell-based; details: DU145 cells, 96 hours after treatment, 1 μM to 100 μM; read-out: DU 145 potency (IC50)
In short: (§1)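 After 96 h of exposure to compound (1–100 μM in DMSO; one compound at 0.1–100 μM), effects were scored by inverted-microscope inspection, with trypan blue viable counts by hemacytometer when required. Cells were seeded at 2.5×10^4 per well and dosed 24 h after plating.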

[2] = system: K562 (chronic myelogenous leukaemia); assay: Effect of compounds on tumor cell lines (assay of Latham et al.), K562; type: cell-based; details: K562 cells, 96 hours after treatment, 1 μM to 100 μM; read-out: K 562 potency (IC50)
In short: as §1

Row | SMILES | IC50 [1] | IC50 [2]
1 | O=C(/C(=C\c1ccc(O)c([N+](=O)[O-])c1)SCc1ccc(Br)cc1)c1cc(Cl)ccc1O [Example 187] | 25 to 50 µM | 10 to 25 µM
2 | CSc1ccc(/C=C(/SCc2ccc(Br)cc2)C(=O)c2ccc(C(=O)O)cc2)cc1 [Example 188] | 25 to 50 µM | 25 to 50 µM
3 | O=C(C(=Cc1c(O)cc(O)cc1O)SCc1ccc(Cl)cc1)c1ccc(Cl)cc1 [Example 192] | > 100 µM | > 100 µM
4 | COc1cc(OC)c(C=C(SCc2ccc(Cl)cc2)C(=O)c2ccc([N+](=O)[O-])cc2)c(OC)c1 [Example 194] | > 100 µM | 50 to 100 µM
5 | O=C(C(=Cc1ccc(Cl)cc1Cl)SCc1ccc(Cl)cc1)c1ccc(Cl)cc1 [Example 195] | 25 to 50 µM | 25 to 50 µM
6 | O=C(C(=Cc1ccc(O)cc1O)SCc1ccc(Cl)cc1)c1ccc(Cl)cc1 [Example 196] | 50 to 100 µM | 50 to 100 µM
7 | COc1ccccc1C=C(SCc1ccc(Cl)cc1)C(=O)c1ccc([N+](=O)[O-])cc1 [Example 200] | 10 to 25 µM | 1 to 10 µM
8 | O=C(C(=Cc1ccc[nH]1)SCc1ccc(Cl)cc1)c1ccc(Cl)cc1 [Example 201] | 25 to 50 µM | 10 to 25 µM
9 | Cc1cc(C)cc(C=C(SCc2ccc(Cl)cc2)C(=O)c2ccc(Cl)cc2)c1 [Example 202] | 10 to 25 µM | 10 to 25 µM
10 | Cc1ccsc1C=C(SCc1ccc(Cl)cc1)C(=O)c1ccc(Br)cc1 [Example 205] | 25 to 50 µM | 25 to 50 µM
11 | Cc1ccsc1C=C(SCc1ccc(Cl)cc1)C(=O)c1ccc(Cl)cc1 [Example 206] | 50 to 100 µM | 50 to 100 µM
12 | Cc1ccsc1C=C(SCc1ccc(Cl)cc1)C(=O)c1ccc([N+](=O)[O-])cc1 [Example 207] | > 100 µM | > 100 µM
13 | CN(C)c1ccc(C=C(SCc2ccc(Cl)cc2)C(=O)c2ccc(Br)cc2)cc1 [Example 208] | 10 to 25 µM | 1 to 10 µM
14 | CN(C)c1ccc(C=C(SCc2ccc(Cl)cc2)C(=O)c2ccc(Cl)cc2)cc1 [Example 210] | > 100 µM | 10 to 25 µM
15 | CN(C)c1ccc(C=C(SCc2ccc(Cl)cc2)C(=O)c2ccc([N+](=O)[O-])cc2)cc1 [Example 211] | > 100 µM | 50 to 100 µM
16 | O=C(C(=Cc1ccc(Cl)cc1)SCc1ccc(Cl)cc1)c1ccccc1Cl [Example 217] | 50 to 100 µM | 1 to 10 µM
17 | O=C(C(=Cc1ccc(Cl)cc1)SCc1ccc(Cl)cc1)c1ccc(Br)cc1 [Example 218] | 10 to 25 µM | 1 to 10 µM
18 | O=C(C(=Cc1ccc(O)c([N+](=O)[O-])c1)SCc1ccc(Cl)cc1)c1ccc(Cl)cc1 [Example 220] | 10 to 25 µM | 10 to 25 µM
19 | O=C(C(=Cc1ccc(O)cc1)SCc1ccc(Cl)cc1)c1ccc(Br)cc1 [Example 221] | 10 to 25 µM | 1 to 10 µM
20 | O=C(C(=Cc1ccc(O)cc1)SCc1ccc(Cl)cc1)c1ccc(Cl)cc1 [Example 222] | 10 to 25 µM | 1 to 10 µM
21 | CSc1ccc(C=C(SCc2ccc(Cl)cc2)C(=O)c2ccc(C(=O)O)cc2)cc1 [Example 223] | > 100 µM | > 100 µM
22 | CSc1ccc(C=C(SCc2ccc(Cl)cc2)C(=O)c2ccc(Cl)cc2)cc1 [Example 224] | 25 to 50 µM | 1 to 10 µM
23 | COc1ccc(C=C(SCc2ccc(Cl)cc2)C(=O)c2ccc(Br)cc2)cc1 [Example 225] | 10 to 25 µM | 1 to 10 µM

Row | SMILES | IC50 [1] | IC50 [2]
24 | COc1ccc(C=C(SCc2ccc(Cl)cc2)C(=O)c2ccc(Br)cc2)cc1 [Example 226] | 25 to 50 µM | 1 to 10 µM
25 | COc1ccc(C=C(SCc2ccc(Cl)cc2)C(=O)c2ccc(C(=O)O)cc2)cc1 [Example 227] | 25 to 50 µM | 25 to 50 µM
26 | COc1ccc(C=C(SCc2ccc(Cl)cc2)C(=O)c2ccc(Cl)cc2)cc1 [Example 228] | 10 to 25 µM | 1 to 10 µM
27 | Cc1ccc(C=C(SCc2ccc(Cl)cc2)C(=O)c2ccc(Br)cc2)s1 [Example 229] | > 100 µM | 50 to 100 µM
28 | Cc1ccc(C=C(SCc2ccc(Cl)cc2)C(=O)c2ccc(Cl)cc2)s1 [Example 230] | 50 to 100 µM | 50 to 100 µM
29 | Cc1ccc(C=C(SCc2ccc(Cl)cc2)C(=O)c2ccc([N+](=O)[O-])cc2)s1 [Example 231] | 25 to 50 µM | 25 to 50 µM
30 | COc1cc(OC)c(C=C(SCc2ccc(F)cc2)C(=O)c2ccc(Cl)cc2)c(OC)c1 [Example 234] | 10 to 25 µM | 10 to 25 µM
31 | COc1ccccc1C=C(SCc1ccc(F)cc1)C(=O)c1ccc(Cl)cc1 [Example 240] | 10 to 25 µM | 1 to 10 µM
32 | Cc1cc(C)cc(C=C(SCc2ccc(F)cc2)C(=O)c2ccc(Br)cc2)c1 [Example 242] | 10 to 25 µM | 1 to 10 µM
33 | COc1ccc(C=C(SCc2ccc(F)cc2)C(=O)c2ccc(C(=O)O)cc2)cc1O [Example 244] | 10 to 25 µM | 1 to 10 µM
34 | Cc1ccsc1C=C(SCc1ccc(F)cc1)C(=O)c1ccc(Br)cc1 [Example 246] | 50 to 100 µM | > 100 µM
35 | CCN(CC)CCNC(=O)c1c(C)[nH]c(C=C(SCc2ccc(F)cc2)C(=O)c2ccc(C(=O)O)cc2)c1C [Example 248] | 50 to 100 µM | 50 to 100 µM
36 | CN(C)c1ccc(C=C(SCc2ccc(F)cc2)C(=O)c2ccc(Br)cc2)cc1 [Example 249] | 25 to 50 µM | 1 to 10 µM
37 | CN(C)c1ccc(C=C(SCc2ccc(F)cc2)C(=O)c2ccc(C(=O)O)cc2)cc1 [Example 250] | 25 to 50 µM | 10 to 25 µM
38 | O=C(C(=Cc1ccc(Br)cc1)SCc1ccc(F)cc1)c1ccc(Br)cc1 [Example 253] | 25 to 50 µM | 1 to 10 µM
39 | O=C(C(=Cc1ccc(Br)cc1)SCc1ccc(F)cc1)c1ccc(Cl)cc1 [Example 254] | 10 to 25 µM | 1 to 10 µM
40 | O=C(C(=Cc1ccc(Cl)cc1)SCc1ccc(F)cc1)c1ccc(Cl)cc1 [Example 256] | 10 to 25 µM | 1 to 10 µM
41 | CCOc1ccc(C=C(SCc2ccc(F)cc2)C(=O)c2ccc(Br)cc2)cc1OC [Example 257] | 50 to 100 µM | 1 to 10 µM
42 | O=C(C(=Cc1ccc(F)cc1C(F)(F)F)SCc1ccc(F)cc1)c1ccc(Br)cc1 [Example 260] | 10 to 25 µM | 10 to 25 µM
43 | O=C(O)c1ccc(C(=O)C(=Cc2ccc(O)c([N+](=O)[O-])c2)SCc2ccc(F)cc2)cc1 [Example 262] | > 100 µM | 50 to 100 µM
44 | COc1ccc(C=C(SCc2ccc(F)cc2)C(=O)c2ccc(Br)cc2)cc1 [Example 265] | 25 to 50 µM | 1 to 10 µM
45 | Cc1ccc(CSC(=Cc2ccc(O)c(O)c2O)C(=O)c2ccc(Cl)cc2)cc1 [Example 270] | 50 to 100 µM | 50 to 100 µM
46 | Cc1ccc(CSC(=Cc2cccc(Cl)c2Cl)C(=O)c2ccc(Cl)cc2)cc1 [Example 271] | 25 to 50 µM | 25 to 50 µM

Other lines, results leading:

Row | IC50 [1] | IC50 [2] | SMILES
47 | 10 to 25 µM | 10 to 25 µM | O=C(/C(=C\c1cccc(Cl)c1Cl)SCc1ccc(Cl)cc1)c1ccc(Br)cc1 [Example 190]
48 | 10 to 25 µM | 1 to 10 µM | O=C(C(=Cc1cccc(Cl)c1Cl)SCc1ccc(Cl)cc1)c1ccc(Cl)cc1 [Example 191]
49 | 1 to 10 µM | 10 to 25 µM | COc1cc(OC)c(C=C(SCc2ccc(Cl)cc2)C(=O)c2ccc(Br)cc2)c(OC)c1 [Example 193]
50 | 10 to 25 µM | 10 to 25 µM | Cc1ccc(C)c(C=C(SCc2ccc(Cl)cc2)C(=O)c2ccc(Cl)cc2)c1 [Example 197]
51 | 1 to 10 µM | 10 to 25 µM | COc1ccccc1C=C(SCc1ccc(Cl)cc1)C(=O)c1ccc(Br)cc1 [Example 198]
52 | 1 to 10 µM | 1 to 10 µM | COc1ccccc1C=C(SCc1ccc(Cl)cc1)C(=O)c1ccc(Cl)cc1 [Example 199]
53 | 1 to 10 µM | 1 to 10 µM | COc1ccc(C=C(SCc2ccc(Cl)cc2)C(=O)c2ccc(Br)cc2)cc1O [Example 203]
54 | 1 to 10 µM | ≤ 1 µM | COc1ccc(C=C(SCc2ccc(Cl)cc2)C(=O)c2ccc(Cl)cc2)cc1O [Example 204]
55 | 1 to 10 µM | 1 to 10 µM | CN(C)c1ccc(C=C(SCc2ccc(Cl)cc2)C(=O)c2ccc(C(=O)O)cc2)cc1 [Example 209]
56 | 1 to 10 µM | 10 to 25 µM | O=C(C(=Cc1ccc(OCc2ccccc2)cc1)SCc1ccc(Cl)cc1)c1ccc(Cl)cc1 [Example 212]
57 | 1 to 10 µM | ≤ 1 µM | O=C(O)c1ccc(C(=O)C(=Cc2ccc(Br)c([N+](=O)[O-])c2)SCc2ccc(Cl)cc2)cc1 [Example 213]
58 | 1 to 10 µM | 1 to 10 µM | O=C(C(=Cc1ccc(Br)cc1)SCc1ccc(Cl)cc1)c1ccc(Br)cc1 [Example 214]
59 | 1 to 10 µM | 1 to 10 µM | O=C(C(=Cc1ccc(Br)cc1)SCc1ccc(Cl)cc1)c1ccc(Cl)cc1 [Example 215]
60 | 1 to 10 µM | ≤ 1 µM | O=C(O)c1ccc(C(=O)C(=Cc2ccc(Cl)c([N+](=O)[O-])c2)SCc2ccc(Cl)cc2)cc1 [Example 216]
61 | 1 to 10 µM | 1 to 10 µM | COc1cc(OC)c(C=C(SCc2ccc(F)cc2)C(=O)c2ccc(Br)cc2)c(OC)c1 [Example 233]
62 | 1 to 10 µM | 50 to 100 µM | Cc1ccc(C)c(C=C(SCc2ccc(F)cc2)C(=O)c2ccc(Br)cc2)c1 [Example 235]
63 | 1 to 10 µM | 1 to 10 µM | O=C(C(=Cc1ccccc1OCc1ccccc1)SCc1ccc(F)cc1)c1ccc(Br)cc1 [Example 236]
64 | 1 to 10 µM | ≤ 1 µM | O=C(O)c1ccc(C(=O)C(=Cc2ccc(Br)c([N+](=O)[O-])c2)SCc2ccc(F)cc2)cc1 [Example 252]
65 | 1 to 10 µM | ≤ 1 µM | O=C(O)c1ccc(C(=O)C(=Cc2ccc(Cl)c([N+](=O)[O-])c2)SCc2ccc(F)cc2)cc1 [Example 255]
66 | 1 to 10 µM | 1 to 10 µM | O=C(C(=Cc1c[nH]c2ccc(Cl)cc12)SCc1ccc(F)cc1)c1ccc(Br)cc1 [Example 267]
